Assay results taken from article PMC11079024, “Identification of a family of species-selective complex I inhibitors as potential anthelmintics” (Nature Communications, 2024).
Values joined by “and” are separate entries in the source; they are usually repeats but may differ in a detail not shown here. Equal entries are not always repeated. Where two headings read alike, the source gives them in different places.

How the values were obtained:
[1] = test system: H. polygyrus; assay: In vivo efficacy study in H. polygyrus mouse model; set-up: species or system NMRI mice infected with H. polygyrus; details: for # Mice cured/ # Mice investigated: assessed 1 week after dosing; for Median # of living H. polygyrus worms: median (MAD) of adults collected from intestine; for Live worms in intestine (individual mouse) / Live worms in intestine, Median (+/- MAD): worm burden one week after dose; for Live worms in intestine (individual mouse): Mouse 1-4, 200 mg/kg; for Live worms in intestine, Median (+/- MAD): three to four mice
Protocol: For in vivo testing, female 3-week old NMRI mice were purchased from Charles River, Germany. The mice were kept in individually ventilated cages (IVC) under environmentally controlled conditions (temperature: 22 °C ± 2 °C; relative humidity: 55% ± 15%; artificial lighting with a circadian cycle of 12 h of light) and had free access to water (municipal tap water supply) and rodent food. Rodents were allowed to acclimatize to the new environment for 1 week before infection. Upon 2 days of arrival, dexamethasone (0.25 mg/L) (Sigma-Aldrich, Switzerland) was added to the normal drinking water for immunosuppression to enable parasite establishment. After 1 week, mice were orally infected with 100 H. polygyrus third larval stage (L3) in 150 µL water.
Four benzimidazole derivatives were tested for in vivo efficacy. The administration of dexamethasone was stopped after 12 days post-infection and 2 days later, the selected four benzimidazole derivatives were administered by oral gavage at a single dose of 200 mg/kg to groups of each four mice. Four mice were left untreated and served as a control group. The derivatives were prepared as a Tween80 (Sigma-Aldrich, Switzerland)/ethanol (Merck, Germany) mixture dissolved in tap water (7:3:90, v/v). After 6–7 days post-dosing, the mice were euthanized with CO2 and dissected. Adult worms were removed from the intestine and counted. The worm burden reduction was calculated by comparing the number of worms found in the control animals versus the treated animals.

[2] = biological target: C. briggsae complex I (Caenorhabditis briggsae, UniProt A8X476+A8XFG2+Q8HEC4); assay: In vitro complex I activity assay, C. briggsae mitochondria; assay type: biochemical; details: for remaining activity at 0.0001 µM / remaining activity at 0.0005 µM / remaining activity at 0.001 µM / remaining activity at 0.0025 µM / remaining activity at 0.005 µM / remaining activity at 0.013 µM / remaining activity at 0.025 µM / remaining activity at 0.063 µM / remaining activity at 0.125 µM / remaining activity at 0.313 µM / remaining activity at 0.625 µM / remaining activity at 1.5 µM / remaining activity at 3 µM / remaining activity at 15 µM / remaining activity at 37.5 µM / remaining activity at 75 µM / remaining activity at 0.06 µM / remaining activity at 0.13 µM: C. briggsae mitochondria, read-out: in vitro complex I activity relative to solvent control; for IC50: purified mitochondria
Protocol: Mitochondria were isolated from the following free-living nematode strains: C. elegans—N2, CB3474, ECA882, ECA917, ECA1075, ECA1080; C. briggsae—AF16; P. pacificus—PS312; and P. hermaphrodita—B178. With the exception of the P. hermaphrodita strain B178, adult worms of each strain were grown in bulk through liquid culture to obtain mitochondria in sufficient quantities. Due to poor growth in liquid media, mixed stage populations of P. hermaphrodita were washed off and collected from NGM plates seeded with OP50. The isolation of mitochondria from all free-living nematode strains followed the protocol previously outlined in Burns et al.[24]. In brief, a 1 L saturated culture of E. coli HB101 was concentrated 20-fold in 50 mL complete S-medium. ~500,000 L1 worms synchronized from an embryo preparation performed the day prior were added to the S-media/HB101 suspension and grown to adulthood over the course of 3.5 days at 20 °C with shaking at 165 rpm. Following growth, worms were collected in 10 ×15 mL conical tubes and washed 7 times in M9 buffer. Worm suspensions were then combined into a single 15 mL conical tube and diluted to a final volume of 15 mL with M9 buffer. 1 mL aliquots of worm suspension were then distributed to 15 × 1.5 mL screw-cap microcentrifuge tubes and were pelleted at 500 g for 1 min. Excess M9 was aspirated without disturbing the worm pellet. 600 μL ice-cold isolate buffer A (250 mM sucrose, 10 mM Tris (pH 7.5), 1 mM EDTA, 1 mM PMSF (freshly prepared)) and 300 μL cold glass beads were then added to each tube. Tubes were incubated on ice for 10 min, and the worms were then lysed by bead beating (6 x 30 s, with 1 min cooling intervals). Tubes containing worm lysate were centrifuged at 1,000 g for 10 min at 4 °C and the supernatant was transferred to 15 new microcentrifuge tubes on ice. The tubes were centrifuged a second time at 1,000 g for 10 min at 4 °C and the supernatant was once again transferred to 15 new microcentrifuge tubes on ice. These tubes were then centrifuged at 16,000 g for 10 min at 4 °C. The resulting mitochondrial pellet was washed twice by re-suspension in 300 μL of ice-cold isolate buffer B (250 mM sucrose, 10 mM Tris (pH 7.5), 1 mM EDTA). Following the final wash, isolation buffer was aspirated from each tube and the pellets were flash-frozen in ethanol/dry ice and stored at −80 °C until needed.
The enzymatic activities of individual ETC complexes (I-IV) were assessed spectrophotometrically in isolated mitochondria using a Varioskan LUX Multimode plate reader (ThermoFisher Scientific). Mitochondrial pellets previously isolated were thawed on ice and resuspended in ice-cold isolation buffer (250 mM sucrose, 10 mM Tris (pH 7.5), 1 mM EDTA). The BCA assay (Walker, 1994) was used to quantify the protein concentration of mitochondria suspensions; solutions were diluted to a concentration of 0.2 mg/mL for use in all assays. For the complex I assay, mitochondria pellets were freeze-thawed on ice three times to increase enzyme accessibility. […] 20 μL mitochondria suspension was then added/mixed with a pipette to initiate the reaction. Immediately following the addition of mitochondria, absorbance was measured (complex I and II: 600 nm; complex III and IV: 550 nm) in 30 s intervals over 15 min. Enzymatic activity was determined in each reaction by plotting absorbance versus time and calculating the slope of the curve during the initial linear phase of the reaction. […] Percent activity of each complex was calculated by dividing the enzyme-specific activity of each well by the enzyme-specific activity of the corresponding solvent controls.
Chemical solutions were prepared in complex I assay buffer composed of 25 mM KPi buffer (pH 7.5), 3 mg/mL bovine serum albumin (BSA), 80 μM NADH, 60 μM decylubiquinone, 160 μM DCIP, 2 μM antimycin A and 2 mM KCN.
For preliminary screens of hit compounds, compounds were screened at 100 μM; data are the average of at least three biological replicates.

[3] = test system: C. elegans; assay: C. elegans chemical screens of RIKEN NPD libraries at 50 μM (hit identification in KCN survival and development/viability assays); assay type: cell-based, Caenorhabditis elegans; details: screened at 50 μM in triplicate; […]; KCN = KCN survival assay, Dev. & Viability = development/viability assay
[4] = single oral dose 200 mg/kg, vs untreated control mice
[5] = single oral dose of 200 mg/kg, median worm counts versus control mice

Sequence of C. briggsae complex I (A8X476 31-482): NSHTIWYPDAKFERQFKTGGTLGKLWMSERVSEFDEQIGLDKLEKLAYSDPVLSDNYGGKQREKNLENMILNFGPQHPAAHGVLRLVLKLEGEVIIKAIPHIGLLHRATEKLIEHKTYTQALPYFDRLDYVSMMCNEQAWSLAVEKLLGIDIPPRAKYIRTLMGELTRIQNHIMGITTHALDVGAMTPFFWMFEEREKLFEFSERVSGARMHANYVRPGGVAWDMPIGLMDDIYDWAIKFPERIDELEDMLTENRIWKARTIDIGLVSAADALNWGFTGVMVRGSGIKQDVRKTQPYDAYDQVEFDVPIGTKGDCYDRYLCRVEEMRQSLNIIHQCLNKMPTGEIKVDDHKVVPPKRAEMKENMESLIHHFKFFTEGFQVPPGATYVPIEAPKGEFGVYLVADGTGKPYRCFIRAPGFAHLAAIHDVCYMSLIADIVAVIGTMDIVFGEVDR
Sequence of C. briggsae complex I (A8XFG2 17-199): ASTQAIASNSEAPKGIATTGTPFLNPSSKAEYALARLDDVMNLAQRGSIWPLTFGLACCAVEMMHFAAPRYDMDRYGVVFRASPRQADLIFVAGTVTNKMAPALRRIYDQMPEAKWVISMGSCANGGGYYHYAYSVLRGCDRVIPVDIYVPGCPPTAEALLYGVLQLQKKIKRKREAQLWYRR
Sequence of C. briggsae complex I (Q8HEC4 whole entry): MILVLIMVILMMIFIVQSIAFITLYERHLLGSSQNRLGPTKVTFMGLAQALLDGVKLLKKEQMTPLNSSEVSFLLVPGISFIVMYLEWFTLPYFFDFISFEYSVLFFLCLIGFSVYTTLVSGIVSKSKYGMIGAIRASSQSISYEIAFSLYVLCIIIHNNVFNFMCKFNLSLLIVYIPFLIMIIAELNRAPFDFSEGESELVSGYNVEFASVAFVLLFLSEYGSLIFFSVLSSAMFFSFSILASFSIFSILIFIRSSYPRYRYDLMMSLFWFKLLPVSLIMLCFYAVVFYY

`Cc1ccccc1OCCCCn1cnc2ccccc21` [Compound 7732524] was tested, and the “# Mice cured/ # Mice investigated” value ([1]; single oral dose 200 mg/kg) was 0/4, the “% Worm burden reduction” value [1, 4] was 24.6% and the “Median # of living H. polygyrus worms” value ([1]; single oral dose 200 mg/kg) was 93.5 (5.0). For the same compound, the “% Worm burden reduction” value [1, 5] was 24.5968%, the “Live worms in intestine (individual mouse)” value ([1]; single oral dose of 200 mg/kg) was 95 and 92 and 111 and 85 and the “Live worms in intestine, Median (+/- MAD)” value ([1]; single oral dose of 200 mg/kg) was 93.5 (5.0). For the same compound, the remaining activity at 0.0001 µM ([2]; Mean) was 92.8%, the remaining activity at 0.0001 µM ([2]; single replicate) was 92.9% and the remaining activity at 0.0005 µM ([2]; Mean) was 91%. The remaining activity at 0.0005 µM ([2]; single replicate) was 90.7%, the remaining activity at 0.001 µM ([2]; Mean) was 90.6% and the remaining activity at 0.001 µM ([2]; single replicate) was 94.1%. It also gave a remaining activity at 0.0025 µM ([2]; Mean) of 91.8%, a remaining activity at 0.0025 µM ([2]; single replicate) of 95.4% and a remaining activity at 0.005 µM ([2]; Mean) of 99.8%. The remaining activity at 0.005 µM ([2]; single replicate) was 102%, the remaining activity at 0.013 µM ([2]; Mean) was 86.4% and the remaining activity at 0.013 µM ([2]; single replicate) was 91.2%. For the same compound, the remaining activity at 0.025 µM ([2]; Mean) was 74.3%, the remaining activity at 0.025 µM ([2]; single replicate) was 77.1% and the remaining activity at 0.063 µM ([2]; Mean) was 43.5%. It also gave a remaining activity at 0.063 µM ([2]; single replicate) of 44.1%, a remaining activity at 0.125 µM ([2]; Mean) of 26.1% and a remaining activity at 0.313 µM ([2]; Mean) of 7.94%. For the same compound, the remaining activity at 0.625 µM ([2]; Mean) was 0.818%, the remaining activity at 1.5 µM ([2]; Mean) was 1.29% and the remaining activity at 3 µM ([2]; Mean) was 1.71%. The remaining activity at 15 µM ([2]; Mean) was 1.4%, the remaining activity at 37.5 µM ([2]; Mean) was 1.05% and the remaining activity at 75 µM ([2]; Mean) was 0.358%. For the same compound, the IC50 [2] was 60.3 nM.
For `CC(C)Cc1ccc(C(C)c2nc3ccccc3n2C)cc1` (stereo not drawn) [NPD8790], the “# Mice cured/ # Mice investigated” value ([1]; single oral dose 200 mg/kg) was 0/4, the “% Worm burden reduction” value [1, 4] was 23.0% and the “Median # of living H. polygyrus worms” value ([1]; single oral dose 200 mg/kg) was 95.5 (4.0). For the same compound, the “% Worm burden reduction” value [1, 5] was 22.9839%, the “Live worms in intestine (individual mouse)” value ([1]; single oral dose of 200 mg/kg) was 93 and 52 and 101 and 98 and the “Live worms in intestine, Median (+/- MAD)” value ([1]; single oral dose of 200 mg/kg) was 95.5 (4.0). For the same compound, the remaining activity at 0.06 µM ([2]; Mean of replicates) was 103%, the remaining activity at 0.06 µM ([2]; single replicate) was 95.7% and the remaining activity at 0.13 µM ([2]; Mean of replicates) was 92%. The remaining activity at 0.13 µM ([2]; single replicate) was 86.2%, the remaining activity at 0.313 µM ([2]; Mean of replicates) was 85.6% and the remaining activity at 0.313 µM ([2]; single replicate) was 76.1%. For the same compound, the remaining activity at 0.625 µM ([2]; Mean of replicates) was 74.2%, the remaining activity at 0.625 µM ([2]; single replicate) was 81.9% and the remaining activity at 1.5 µM ([2]; Mean of replicates) was 61.1%. It also gave a remaining activity at 1.5 µM ([2]; single replicate) of 70%, a remaining activity at 3 µM ([2]; Mean of replicates) of 43.1% and a remaining activity at 3 µM ([2]; single replicate) of 52.6%. It also gave a remaining activity at 15 µM ([2]; Mean of replicates) of 16%, a remaining activity at 37.5 µM ([2]; Mean of replicates) of 11.7% and a remaining activity at 75 µM ([2]; Mean of replicates) of 9.21%. For the same compound, the remaining activity at 0.0001 µM ([2]; Mean) was 91.5%, the remaining activity at 0.0001 µM ([2]; single replicate) was 87.3% and the remaining activity at 0.0005 µM ([2]; Mean) was 96.4%. It also gave a remaining activity at 0.0005 µM ([2]; single replicate) of 99.9%, a remaining activity at 0.001 µM ([2]; Mean) of 102% and a remaining activity at 0.001 µM ([2]; single replicate) of 99.6%. For the same compound, the remaining activity at 0.0025 µM ([2]; Mean) was 115%, the remaining activity at 0.0025 µM ([2]; single replicate) was 108% and the remaining activity at 0.005 µM ([2]; Mean) was 119%. The remaining activity at 0.025 µM ([2]; Mean) was 109%, the remaining activity at 0.063 µM ([2]; Mean) was 103% and the remaining activity at 0.063 µM ([2]; single replicate) was 95.7%. The remaining activity at 0.125 µM ([2]; Mean) was 92%, the remaining activity at 0.125 µM ([2]; single replicate) was 86.2% and the remaining activity at 0.313 µM ([2]; Mean) was 85.6%. It also gave a remaining activity at 0.625 µM ([2]; Mean) of 74.2%, a remaining activity at 1.5 µM ([2]; Mean) of 61.1% and a remaining activity at 3 µM ([2]; Mean) of 43.1%. The remaining activity at 15 µM ([2]; Mean) was 16%, the remaining activity at 37.5 µM ([2]; Mean) was 11.7% and the remaining activity at 75 µM ([2]; Mean) was 9.21%. For the same compound, the IC50 [2] was 1600 nM and the “Hit Type” value [3] was “KCN”.
